From paper PMC12507957 (Drug Delivery and Translational Research, 2025)
Like-named read-outs stand apart in the source and are kept apart here.

Legend:
[1] = Forced degradation studies of MTG; type: physicochemical; conditions: over 24 h
Experimental: Samples were taken at 6, 12 and 24 h for dissolution and/or dilution before HPLC analysis (Sect. HPLC analysis).
(§1) Samples were analysed using Shimadzu liquid chromatographic system (Kyoto, Japan) with SPD-20A UV–vis detector set at 254 nm. A reverse phase ZORBAX Eclipse Plus C18 column (Agilent Technologies, 150 × 4.6 mm ID × 3.5 μm) coupled with a C18 guard column (Phenomenex SecurityGuard™, 4 × 3.0 mm ID × 5 μm) was employed as the stationary phase. A gradient elution method with acetonitrile and 0.1%v/v of formic acid as the mobile phase (30:70 to 70:30 (v/v) over 1 min and held until 4 min; then returned to 30:70 (v/v) from 4 to 6 min and held up until 10 min) at a flow rate of 1.2 mL/min was used. The injection volume was set at 100 μL and the total run time was 10 min with a retention time of ~ 4 min.

[2] = Stability of MTG in PBS receptor medium with antioxidants (DTT, ascorbic acid); type: physicochemical; conditions: 32 °C
Experimental: The drug content was analysed using HPLC (Sect. HPLC analysis) at 24, 48, 72 and 96 h.
as §1, with “min. The limits of detection and quantification were 0.47 and 1.43 μg/mL for a lower concentration drug range (0.5–10 μg/mL) and 4.29 and 13.01 μg/mL for a higher concentration drug range (10–175 μg/mL), respectively. The linearity for both calibration curves was excellent (R^2 > 0.999).” for “min.”

[3] = Mass balance studies after 48-h skin permeation of MTG in solvents; type: in vitro ADME, porcine; conditions: for recovery at 48 h, 5 %w/v: pig
Experimental: (§2) The in vitro permeation study was performed in triplicate using Franz diffusion cell apparatus with a diffusion area of ~ 0.8 cm^2 and a receptor volume of ~ 3 mL. The porcine skin was thawed at room temperature and cut into an appropriate size before mounting on the Franz diffusion cells. The receptor compartment was filled with PBS containing 0.02%w/v of sodium azide and a selected antioxidant. The Franz diffusion cells were placed into a water bath to maintain the skin temperature at 32 ± 0.5 °C. […] After 48-h permeation studies, the mass balance studies were performed.
(§3) Subsequently, the surface of the skin was washed twice with 500 μL of methanol before adding to the same Eppendorf tube containing the cotton buds. The skin was removed from the dissembled Franz diffusion cell and cut into pieces before placing in another Eppendorf tube containing 1 mL of methanol. All samples were vortexed and analysed using HPLC (Sect. HPLC analysis).
as §1

[4] = Mass balance studies after skin permeation of MTG gels; type: in vitro ADME, porcine; conditions: pig
Experimental: as §2, with “performed. The samples were extracted for MTG content overnight before HPLC analysis.” for “performed.”
as §3, with “Immediately post-application, any remaining MTG was swabbed from the skin surface with cotton buds and added into an Eppendorf tube. Subsequently,” for “Subsequently,”
BHT at the optimised concentration was also added accordingly. The gels were evaluated for their drug content by mixing the gel in methanol for overnight extraction of MTG before HPLC analysis (Sect. HPLC analysis). In vitro drug release studies were carried out with a similar experimental setup as described in Sect. In vitro permeation and mass balance studies but porcine skin was replaced with a 0.45 µm nylon membrane filter and 40 μL of gel was loaded on the membrane at the donor compartment. Subsequent in vitro permeation and mass balance studies were performed as described in Sect. In vitro permeation and mass balance studies by loading 40 μL of the gel on the skin.

[5] = 32 °C; cited from earlier work
[6] = rats; cited from earlier work
[7] = cited from earlier work
[8] = 5%w/v MTG in DMSO, receptor PBS with 0.01%w/v ascorbic acid (DMSO-AA), 48 h
[9] = 5%w/v MTG in Labrasol, receptor PBS with 0.01%w/v ascorbic acid (Labrasol-AA), 48 h
[10] = 5%w/v MTG in Labrasol, receptor PBS without ascorbic acid, 48 h
[11] = 5%w/v MTG in Lauroglycol, receptor PBS with 0.01%w/v ascorbic acid (Lauroglycol-AA), 48 h
[12] = 5%w/v MTG in Lauroglycol, receptor PBS without ascorbic acid, 48 h
[13] = 5%w/v MTG in Maisine, receptor PBS with 0.01%w/v ascorbic acid (Maisine-AA), 48 h
[14] = 5%w/v MTG in Maisine, receptor PBS without ascorbic acid, 48 h
[15] = 5%w/v MTG in PG, receptor PBS with 0.01%w/v ascorbic acid (PG-AA), 48 h
[16] = 5%w/v MTG in Transcutol, receptor PBS with 0.01%w/v ascorbic acid (Transcutol-AA), 48 h
[17] = 5%w/v MTG in Transcutol, receptor PBS without ascorbic acid, 48 h

CC[C@@H]1CN2CCc3c([nH]c4cccc(OC)c34)[C@@H]2C[C@@H]1/C(=C\OC)C(=O)OC [MTG, mitragynine]
Degradation of MTG ([1]; oxidative and alkaline conditions): ~ 95% | Degradation of MTG ([1]; thermal degradation): ~ 90% | Percentage recovery of MTG ([2]; 50 µg/mL in PBS with DTT (0.01-0.1%w/v), 96 h, lowest recovery): ~ 81% | Percentage recovery of MTG ([2]; 50 µg/mL in PBS with ascorbic acid (0.01-0.1%w/v, regardless of concentration), 96 h): > 99% | Percentage recovery of MTG ([2]; 50 µg/mL in PBS without antioxidant, after 96 h): ~ 96% | Permeation (%) [3, 8]: 0.77 ± 0.12% | Skin extraction [3, 8]: 0.91 ± 0.19% | Washing (on skin surface) [3, 8]: 48.69 ± 0.86% | Permeation (%) [3, 9]: 0.08 ± 0.05% | Skin extraction [3, 9]: 3.23 ± 1.80% | Washing (on skin surface) [3, 9]: 70.50 ± 5.24% | Permeation (%) [3, 10]: 0.07 ± 0.07% | Skin extraction [3, 10]: 3.67 ± 0.45% | Washing (on skin surface) [3, 10]: 65.82 ± 5.20% | Permeation (%) [3, 11]: 0.18 ± 0.12% | Skin extraction [3, 11]: 1.96 ± 1.22% | Washing (on skin surface) [3, 11]: 57.28 ± 15.05% | Permeation (%) [3, 12]: 0.04 ± 0.01% | Skin extraction [3, 12]: 0.52 ± 0.38% | Washing (on skin surface) [3, 12]: 66.42 ± 2.26% | Permeation (%) [3, 13]: 0.42 ± 0.13% | Skin extraction [3, 13]: 1.34 ± 0.55% | Washing (on skin surface) [3, 13]: 60.12 ± 1.46% | Permeation (%) [3, 14]: 0.11 ± 0.10% | Skin extraction [3, 14]: 0.45 ± 0.18% | Washing (on skin surface) [3, 14]: 61.67 ± 5.42% | Permeation (%) [3, 15]: 0.30 ± 0.11% | Skin extraction [3, 15]: 1.04 ± 0.20% | Washing (on skin surface) [3, 15]: 45.95 ± 5.07% | Permeation (%) [3, 16]: 0.51 ± 0.22% | Skin extraction [3, 16]: 2.29 ± 0.57% | Washing (on skin surface) [3, 16]: 50.98 ± 9.49% | Permeation (%) [3, 17]: 0.19 ± 0.07% | Skin extraction [3, 17]: 2.08 ± 1.11% | Washing (on skin surface) [3, 17]: 71.94 ± 8.01% | recovery at 48 h, 5 %w/v ([3]; 5%w/v MTG in DMSO, receptor PBS with 0.01%w/v ascorbic acid (DMSO-AA), 48 h, read-out: Total percentage (mass balance recovery)): 50.7 ± 1.17% | recovery at 48 h, 5 %w/v ([3]; 5%w/v MTG in Labrasol, receptor PBS with 0.01%w/v ascorbic acid (Labrasol-AA), 48 h, read-out: Total percentage (mass balance recovery)): 75.7 ± 7.09% | recovery at 48 h, 5 %w/v ([3]; 5%w/v MTG in Labrasol, receptor PBS without ascorbic acid, 48 h, read-out: Total percentage (mass balance recovery)): 70.1 ± 5.72% | recovery at 48 h, 5 %w/v ([3]; 5%w/v MTG in Lauroglycol, receptor PBS without ascorbic acid, 48 h, read-out: Total percentage (mass balance recovery)): 67.4 ± 2.65% | recovery at 48 h, 5 %w/v ([3]; 5%w/v MTG in PG, receptor PBS with 0.01%w/v ascorbic acid (PG-AA), 48 h, read-out: Total percentage (mass balance recovery)): 47.6 ± 5.37% | recovery at 48 h, 5 %w/v ([3]; 5%w/v MTG in Transcutol, receptor PBS without ascorbic acid, 48 h, read-out: Total percentage (mass balance recovery)): 75.4 ± 9.19% | recovery at 48 h, 5 %w/v ([3]; Mitragynine recovery in mass balance studies, 5%w/v in single solvent systems): < 80% | recovery at 48 h, 1 % ([4]; 1% MTG gel with DMSO and BHT, read-out: Total percentage (mass balance recovery)): 81.3 ± 24.3% | recovery at 48 h, 1 % ([4]; 1% MTG gel with PG and BHT, read-out: Total percentage (mass balance recovery)): 85.5 ± 16.1% | recovery at 48 h, 1 % ([4]; 1% MTG gel with Transcutol and BHT, read-out: Total percentage (mass balance recovery)): 87.7 ± 10.8% | recovery at 48 h, 1 % ([4]; all gel formulations (DMSO, PG, Transcutol) with BHT, read-out: Total drug recovery (mass balance)): > 80% | Saturated solubility of MTG in PBS [5]: 77.10 ± 5.17 µg/mL | Oral bioavailability [6]: 3% | MTG loss ([7]; basic environments (pH 8 and 10), 40 °C over 8 h): ≤ 20% | MTG loss ([7]; pH 4 over 24 h): ~ 11.2%
